US10336788B2, “Inhibition of cardiac fibrosis in myocardial infarction” (Moerae Matrix, Inc., priority 2014, dated 2019)
No end group written: not given here.

Assays:
MK2 = experiment: Immunoblot analysis of MK2 activity (HNRNPA0, total MK2, p-MK2) in HL1 cells; type: cell-based, mouse
Method: Cells were rinsed in PMS and grown in DMEM (cat. #11966-025, Gibco) for 2 hours prior to initiating hypoxia (simulated ischemia). Hypoxia was induced by placing cells in a hypoxia chamber ([…] 150i, Thermo Scientific) in a mixture of 5% CO2/95% N2 to attain a 1% oxygen concentration, according to the manufacturer's instruction. […] The MMI-0100 peptide was added to the cells at the start of the ischemia time. Cells were cultured in 12 well plates. At the time of performing the experiments, all cultures were approximately 70-90% confluent. Three different time points were adopted for each of the three cell lines according to the severity of cell death under hypoxia determined by LDH release: for H9C2 cell line: 8 hr; 16 hr; 24 hr; for HL-1 cell line: 4 hr; 8 hr; 12 hr; for cardiac fibroblast cell line: 16 hr; 32 hr; 48 hr.
The left over cell lysates from the Caspase activity assay were used for the Western blots. […] After blocking with recommended blocking reagents for 1 h at the room temperature, the membranes were incubated overnight at 4° C. with primary antibodies in TBS-T, and then incubated with secondary antibodies conjugated with HRP in TBS-T. HNRNPA0, MAPK2, and phospho-MAPK2 proteins were detected using anti-HNRNPA0 (cat. #HPA036569, 1:1000, Sigma-Aldrich), anti-MAPKAPK2 (cat. #SAB4300553, Sigma-Aldrich), and anti-phospho-MAPKAPK2 (cat. #SAB4300241, 1:1000, Sigma-Aldrich). […]

C57BL/6 mice = experiment: Conscious echocardiography of cardiac function after acute myocardial infarction (permanent LAD ligation)
Text: Eight to ten week old C57BL/6 mice (25-30 g) were obtained from Charles River (Wilmington, Mass.) and maintained for at least 7 days with free access to standard rodent food and water. Myocardial infarction was induced by permanent ligation of the left anterior descending (LAD) coronary artery as described previously [Maejima Y, Kyoi S, Zhai P, Liu T, Li H, Ivessa A, et al. Mst1 inhibits autophagy by promoting the interaction between Beclin1 and Bcl-2. Nature Medicine. 2013; 19:1478-88; Qian L, Huang Y, Spencer C I, Foley A, Vedantham V, Liu L, et al. In vivo reprogramming of murine cardiac fibroblasts into induced cardiomyocytes. Nature. 2012; 485:593-8]. Post-surgery, mice were immediately treated with lidocaine (6 mg/kg IM) and atropine (0.04-0.10 mg/kg IM) upon surgical closure, followed by lidocaine and atropine every 2-4 hours for the first 24 hours to prevent arrhythmias. Post-anesthesia, mice were given 0.1 mg/kg buprenorphine every 12 hours for the first 48 hours. […] Cardiac function was measured by conscious echocardiography using a Vevo 2100 ultrasound biomicrscopy system (VisualSonics, Inc., Toronto, Canada) at baseline, 1, 7, and 14 days, as previously described [Oakley R H, Ren R, Cruz-Topete D, Bird G S, Myers P H, Boyle M C, et al. Essential role of stress hormone signaling in cardiomyocytes for the prevention of heart disease. Proc Natl Acad Scie USA. 2013; 110:17035-40; Willis M S, Homeister J W, Rosson G B, Annayev Y, Holley D, Holly S P, et al. Functional redundancy of SWI/SNF catalytic subunits in maintaining vascular endothelial cells in the adult heart. Circulation Res. 2012; 111:e111-22; Willis M S, Schisler J C, Li L, Rodriguez J E, Hilliard E G, Charles P C, et al. Cardiac muscle ring finger-1 increases susceptibility to heart failure in vivo. Circulation Res. 2009; 105:80-8].
Echocardiography was used to follow cardiac function and morphometry prior to the surgical induction of an acute myocardial infarction (AMI) induced by thoracotomy and ligation of the left anterior descending coronary artery in C57BL/6 mice. Cardiac function was then followed at 7 and 14 days post-AMI (FIG. 1A).

[1] = test system: 40 non-kinase enzyme assays, including phosphatases and proteases; experiment: Panel of 40 non-kinase enzyme assays; type: biochemical; conditions: 100 μM; data not shown

YARAAARQARAKALARQLGVAA [MMI-0100]
HNRNPA0 protein expression (MK2; 100 μM, 4 and 8 hours after induction by hypoxia): inhibited | total MK2 and p-MK2 protein levels (MK2; 20 or 100 μM, 1% hypoxia): not changed | LV dilation: LVID; d decreased (C57BL/6 mice; AMI mice treated with MMI-0100, compared to sham, vs. 40% without MMI-0100): 29% | LV dilation: LV Volume; d decreased (C57BL/6 mice; AMI mice treated with MMI-0100, compared to sham, vs. 130% without MMI-0100): 88% | cardiac function compared to untreated AMI mice (C57BL/6 mice; AMI mice, 50 μg/kg/day intraperitoneally, first dose 30 minutes after LAD ligation, 1 and 2 weeks after AMI): significantly greater function | effect on cardiac function, MMI-0100 alone (C57BL/6 mice; mice without AMI, daily MMI-0100 intraperitoneally for 14 days): did not have any effect | interaction at non-kinase enzyme targets (significant if greater than 50% inhibition of activity) [1]: No significant interaction
